Assay [1] deals with Mycobacterium tuberculosis (strain H37RV). The assay can be described thus: In-vitro method for testing compounds against M. tuberculosis (resazurin growth inhibition, MIC). The format is cell-based. Particulars: MIC data representing IC90's, 7 days incubation, resazurin fluorescence. A general note: Alamar Blue is a resazurin reagent that responds to reducing activity.
Another assay concerns M. Smegmatis ATCC607. The assay can be described thus: In-vitro method for testing compounds for anti-bacterial activity against strain M. smegmatis ATCC607 (Alamar Blue growth inhibition). The format is cell-based. The settings on record: pIC50 = -logIC50, IC50 in M, 50% inhibitory concentration for bacterial growth, 48 hours incubation; for pIC50: M. smegmatis ATCC607; for IC50: Mycolicibacterium smegmatis, ATCC607, 48 h, read-out: pIC50, M. smegmatis ATCC607 (converted). Summed up: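 About 250 CFU/well M. smegmatis ATCC607 in Mueller-Hinton broth exposed to five-fold serial compound dilutions, 48 h at 37 °C, humidified 5% CO2. Growth read by Alamar Blue fluorescence (ex 530/em 590 nm) after 2 h further incubation; % growth inhibition calculated.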

Structures are written as SMILES. Converted amounts (≈) assume the structure as drawn. Where two headings read alike, the source gives them in different places.

Experimental findings from patent US7498343B2, “Mycobacterial inhibitors” (priority 2002, dated 2009) are described below.

As usually defined, the pIC50 is −log10 of the IC50, conventionally taken in molar units. Low readings indicate a large IC50, high ones a small IC50.

In assay [1], `COc1nc2ccc(Br)cc2cc1C(c1ccccc1)C(O)(CCCCN(C)C)c1cccc2ccccc12` (single isomer, unassigned) [Compound 197] displayed an MIC of 9.25 microgram/ml. For the same molecule, in the assay on M. Smegmatis ATCC607, the pIC50 is reported as 6.6.
Turning to `COc1nc2ccc(Br)cc2cc1C(c1ccccc1)C(O)(CCCN1CCOCC1)c1ccc2ccccc2c1` (single isomer, unassigned) [Compound 198], the MIC in assay [1] stood at 61.16 microgram/ml. In the assay on M. Smegmatis ATCC607, this molecule yielded a pIC50 of 4.3.
As for `COc1nc2ccc(Br)cc2cc1C(c1ccccc1)C(O)(CCCN(C)C)c1cccc2ccccc12` (single isomer, unassigned) [Compound 199], the MIC in assay [1] worked out at 47.47 microgram/ml. Moreover, the pIC50 in the assay with M. Smegmatis ATCC607 was found to be 6.5.
In assay [1], `COc1nc2ccc(Br)cc2cc1C(c1ccccc1)C(O)(CCN1CCN(c2ncccn2)CC1)c1ccc2ccccc2c1` (single isomer, unassigned) [Compound 200] gave an MIC of 67.47 microgram/ml. Further, the pIC50 in the assay with M. Smegmatis ATCC607 is on record as 4.9.
As to `COc1nc2ccc(Br)cc2cc1C(c1ccccc1)C(O)(CCN(C)C)C1CCN(C(=O)c2ccccc2)CC1` (single isomer, unassigned) [Compound 201], in assay [1], the MIC was 9.77 microgram/ml. The same molecule registered a negative logarithm of the IC50 (pIC50) in the assay on M. Smegmatis ATCC607 of 5.7.
With `COc1nc2ccc(Br)cc2cc1C(c1ccccc1)C(O)(CCN(C)C)C1CCN(C(=O)c2ccccc2)CC1` (single isomer, unassigned) [Compound 202], the MIC in assay [1] was found to be 48.98 microgram/ml. The molecule further showed a pIC50 in the assay with M. Smegmatis ATCC607 of 4.8.
As for `COc1nc2ccc(-c3cc4ccccc4s3)cc2cc1C(c1ccccc1)C(O)(CCN(C)C)c1cccc(F)c1` (single isomer, unassigned) [Compound 203], the MIC in assay [1] came to 1.15 microgram/ml. The same molecule showed a pIC50 with M. Smegmatis ATCC607 of 8.0.
Taken in the same sequence, the figures for `COc1nc2ccc(-c3cc4ccccc4s3)cc2cc1C(c1ccccc1)C(O)(CCN(C)C)c1cccc(F)c1` (single isomer, unassigned) [Compound 204] were 9.14 microgram/ml and 5.4.
In assay [1], `COc1nc2ccc(Br)cc2cc1C(c1ccccc1)C(O)(CCCN1CCOCC1)c1cccc2ccccc12` (single isomer, unassigned) [Compound 210] registered an MIC of 61.16 microgram/ml. The same molecule returned a negative logarithm of the IC50 (pIC50) with M. Smegmatis ATCC607 of 6.1.
Turning to `COc1nc2ccc(Br)cc2cc1C(c1ccccc1)C(O)(CCCN1CCOCC1)c1cccc2ccccc12` (single isomer, unassigned) [Compound 211], the MIC in assay [1] is 61.16 microgram/ml. The molecule also showed a pIC50 with M. Smegmatis ATCC607 of 4.1.
With `COc1nc2ccc(-c3ccc(CO)o3)cc2cc1C(c1ccccc1)C(O)(CCN(C)C)c1cccc2ccccc12` (single isomer, unassigned) [Compound 212], the MIC in assay [1] amounted to 9.08 microgram/ml. The pIC50 with M. Smegmatis ATCC607 is 6.0.
For the molecule `COc1nc2cc(C)c(Br)cc2cc1C(c1ccccc1)C(O)(CCN(C)C)c1cccc(F)c1` (single isomer, unassigned) [Compound 215], the MIC in assay [1] is reported as 8.52 microgram/ml. For the same molecule, the pIC50 in the assay on M. Smegmatis ATCC607 is reported as 6.2.
Molecule `COc1nc2cc(C)c(Br)cc2cc1C(c1ccccc1)C(O)(CCN(C)C)c1cccc(F)c1` (single isomer, unassigned) [Compound 216] had an MIC in assay [1] of 0.85 microgram/ml. For the same molecule, in the assay on M. Smegmatis ATCC607, the negative-log IC50 (pIC50) is recorded as 8.0.
Taken in the same sequence, the figures for `COc1nc2cc(Br)ccc2cc1C(c1ccccc1)C(O)(CCN(C)C)c1cccc2ccccc12` (single isomer, unassigned) [Compound 217] were 44.13 microgram/ml and 6.9.
`COc1nc2cc(Br)ccc2cc1C(c1ccccc1)C(O)(CCN(C)C)c1cccc2ccccc12` (single isomer, unassigned) [Compound 218] came in with an MIC in assay [1] of 8.80 microgram/ml. In the assay on M. Smegmatis ATCC607, this molecule returned a pIC50 of 6.6.
With `COc1nc2c(C)cc(Br)cc2cc1C(c1ccccc1)C(O)(CCN(C)C)c1cccc(F)c1` (single isomer, unassigned) [Compound 219], the MIC in assay [1] worked out at 42.69 microgram/ml. In addition, the pIC50 in the assay on M. Smegmatis ATCC607 was found to be 5.8.
As for `COc1nc2c(C)cc(Br)cc2cc1C(c1ccccc1)C(O)(CCN(C)C)c1cccc(F)c1` (single isomer, unassigned) [Compound 220], the MIC in assay [1] is recorded as 8.52 microgram/ml. In addition, the pIC50 in the assay with M. Smegmatis ATCC607 worked out at 5.3.
`COc1nc2cccc(Br)c2cc1C(c1ccccc1)C(O)(CCN(C)C)c1cccc2ccccc12` (single isomer, unassigned) [Compound 221] displayed an MIC in assay [1] of 44.13 microgram/ml. The negative logarithm of the IC50 (pIC50) in the assay with M. Smegmatis ATCC607 stood at 6.5.
`COc1nc2cccc(Br)c2cc1C(c1ccccc1)C(O)(CCN(C)C)c1cccc2ccccc12` (single isomer, unassigned) [Compound 224]: the MIC in assay [1] is on record as 44.13 microgram/ml. This molecule also displayed a pIC50 with M. Smegmatis ATCC607 of 4.9.
The corresponding values for `COc1nc2cc(C)c(Br)cc2cc1C(c1ccccc1)C(O)(CCN(C)C)c1cccc2ccccc12` (single isomer, unassigned) [Compound 225] are 1.80 microgram/ml and 6.6.
Taken in the same sequence, the figures for `COc1nc2cc(C)c(Br)cc2cc1C(c1ccccc1)C(O)(CCN(C)C)c1cccc2ccccc12` (single isomer, unassigned) [Compound 226] were 9.03 microgram/ml and 5.5.
With `COc1nc2cc(C)c(Br)cc2cc1C(c1ccccc1)C(O)(CCN(C)C)c1cc(F)cc(F)c1` (single isomer, unassigned) [Compound 227], the MIC in assay [1] turned out to be 1.76 microgram/ml. In addition, the pIC50 in the assay with M. Smegmatis ATCC607 is 7.5.
In assay [1], `COc1nc2cc(C)c(Br)cc2cc1C(c1ccccc1)C(O)(CCN(C)C)c1cc(F)cc(F)c1` (single isomer, unassigned) [Compound 228] registered an MIC of 8.80 microgram/ml. In the assay on M. Smegmatis ATCC607, this molecule had a pIC50 of 5.1.
Consider `COc1nc2cc(C)c(C)cc2cc1C(c1ccccc1)C(O)(CCN(C)C)c1cccc2ccccc12` (single isomer, unassigned) [Compound 229], for which, in assay [1], the MIC came out at 40.09 microgram/ml. In the assay on M. Smegmatis ATCC607, this molecule displayed a negative-log IC50 (pIC50) of 7.1.
`CCOc1nc2ccc(Br)cc2cc1C(c1ccccc1)C(O)(CCN(C)C)c1ccccc1` (stereo not shown) [Compound 6] had an MIC in assay [1] of 8.23 microgram/ml. The molecule also yielded a pIC50 in the assay with M. Smegmatis ATCC607 of 5.8.
As to `COc1nc2ccc(Br)cc2cc1[C@@H](c1ccccc1)[C@@](O)(CCN(C)C)c1cccc2ccccc12` [Compound 12, (1R,2S) 1-(6-bromo-2-methoxy-quinolin-3-yl)-4-dimethylamino-2-naphthalen-1-yl-1-phenyl-butan-2-ol], the MIC in assay [1] (Mycobacterium tuberculosis, H37RV, 168 h, read-out: MIC) stood at 0.07 µg/mL (≈ 0.126 µM). Besides, in the assay with M. Smegmatis ATCC607, the IC50 was 2 nM.
In assay [1], `COc1nc2ccc(Br)cc2cc1C(c1ccccc1)C(O)(CCN(C)C)c1cccc2ccccc12` (stereo not shown) [Compound 13] had an MIC of 44.13 microgram/ml. Besides, in the assay on M. Smegmatis ATCC607, the IC50 is 200 nM.
As for `COc1nc2ccc(Br)cc2cc1C(c1ccccc1)C(O)(CCN(C)C)c1cccc2ccccc12` (stereo not shown) [Compound 14], the MIC in assay [1] is listed as 8.80 microgram/ml. The molecule further returned a negative logarithm of the IC50 (pIC50) in the assay with M. Smegmatis ATCC607 of 6.8.
`COc1nc2ccc(Br)cc2cc1C(c1ccccc1)C(O)(CCN(C)C)c1cccc2ccccc12` (stereo not shown) [Compound 15]: in assay [1], the MIC was found to be 2.78 microgram/ml. In the assay on M. Smegmatis ATCC607, this molecule gave a pIC50 of 6.5.
